Test results taken from ChEMBL document CHEMBL5500407, “Designing Chromane Derivatives as α2A-Adrenoceptor Selective Agonists via Conformation Constraint” (J Med Chem, 2024).
Calls of active or inactive are those of the source. No cut-off for these calls is given here.

Assays:
[1] = biological target: T1, Alpha-2A adrenergic receptor (Homo sapiens, UniProt P08913)
T1 sequence (P08913 whole entry): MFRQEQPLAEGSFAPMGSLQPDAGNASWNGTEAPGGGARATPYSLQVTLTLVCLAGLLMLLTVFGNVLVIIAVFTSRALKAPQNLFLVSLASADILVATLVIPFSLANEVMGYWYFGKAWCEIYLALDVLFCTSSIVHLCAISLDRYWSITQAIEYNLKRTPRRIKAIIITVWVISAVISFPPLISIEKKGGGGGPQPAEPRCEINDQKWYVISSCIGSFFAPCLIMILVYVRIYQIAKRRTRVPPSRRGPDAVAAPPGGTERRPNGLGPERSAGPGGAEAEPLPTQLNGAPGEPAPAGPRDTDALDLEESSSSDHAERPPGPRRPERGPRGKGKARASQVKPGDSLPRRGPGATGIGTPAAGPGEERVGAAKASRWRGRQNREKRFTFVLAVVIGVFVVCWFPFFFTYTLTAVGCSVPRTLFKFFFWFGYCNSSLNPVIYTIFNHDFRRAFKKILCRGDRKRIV
Description: Agonist activity at alpha2A-adrenoceptor (unknown origin) expressed in CHO-alpha2-AR-PKAcatEGFP cells assessed as intracellular cAMP concentration by measuring PKA translocation after 15 mins incubation by PKA redistribution assay

[2] = Selectivity index, ratio of EC50 for alpha2A-adrenoceptor (unknown origin) to EC50 for alpha1A-adrenoceptor (unknown origin)
[3] = tested on: Mus musculus; test: Hypnotic activity in ip dosed C57BL/6 mouse assessed as increase in loss of righting reflex (LORR)
[4] = tested on: HEK293T; test: Agonist activity at alpha2A-adrenoceptor Y409A mutant (unknown origin) expressed in HEK293T cells co-expressing pGloSensor-22F cAMP plasmid assessed as at 0.000001 to 100 uM measured after 10 mins incubation by multiplate reader; type: cell-based; details: Homo sapiens, dose lower 1e-06 µM, dose upper 100.0 µM
[5] = Metabolic stability in mouse liver microsomes assessed as intrinsic clearance; type: ADME, Microsome; details: read-out: CLH
[6] = biological target: T2, Alpha-1A adrenergic receptor (Homo sapiens, UniProt P35348); test: Agonist activity at alpha1A-adrenoceptor (unknown origin) expressed in HEK293T cells assessed as fluorescence intensity measured after 30 mins by IP-one homogeneous time-resolved fluorescence assay; type: functional, cell-based
T2 sequence (P35348 whole entry): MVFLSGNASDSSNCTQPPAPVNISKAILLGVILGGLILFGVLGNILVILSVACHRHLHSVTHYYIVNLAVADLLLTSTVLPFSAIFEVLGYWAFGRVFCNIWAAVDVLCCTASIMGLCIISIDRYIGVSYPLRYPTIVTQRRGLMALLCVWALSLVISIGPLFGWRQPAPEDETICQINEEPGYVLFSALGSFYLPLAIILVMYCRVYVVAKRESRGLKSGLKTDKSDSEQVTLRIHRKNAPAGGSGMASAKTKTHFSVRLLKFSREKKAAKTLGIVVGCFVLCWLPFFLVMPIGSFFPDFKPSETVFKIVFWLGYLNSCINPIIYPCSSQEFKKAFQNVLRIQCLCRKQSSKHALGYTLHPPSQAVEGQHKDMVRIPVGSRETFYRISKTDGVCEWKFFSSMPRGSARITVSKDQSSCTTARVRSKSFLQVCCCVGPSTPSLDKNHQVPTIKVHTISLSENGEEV

[7] = biological target: T3, Alpha-2C adrenergic receptor (Homo sapiens, UniProt P18825); test: Agonist activity at alpha2C-adrenoceptor (unknown origin) expressed in CHO-alpha2C-PKAcatEGFP cells assessed as increase in intracellular calcium level measured after 15 mins incubation by Micro automated microscopy; type: functional, cell-based
T3 sequence (P18825 whole entry): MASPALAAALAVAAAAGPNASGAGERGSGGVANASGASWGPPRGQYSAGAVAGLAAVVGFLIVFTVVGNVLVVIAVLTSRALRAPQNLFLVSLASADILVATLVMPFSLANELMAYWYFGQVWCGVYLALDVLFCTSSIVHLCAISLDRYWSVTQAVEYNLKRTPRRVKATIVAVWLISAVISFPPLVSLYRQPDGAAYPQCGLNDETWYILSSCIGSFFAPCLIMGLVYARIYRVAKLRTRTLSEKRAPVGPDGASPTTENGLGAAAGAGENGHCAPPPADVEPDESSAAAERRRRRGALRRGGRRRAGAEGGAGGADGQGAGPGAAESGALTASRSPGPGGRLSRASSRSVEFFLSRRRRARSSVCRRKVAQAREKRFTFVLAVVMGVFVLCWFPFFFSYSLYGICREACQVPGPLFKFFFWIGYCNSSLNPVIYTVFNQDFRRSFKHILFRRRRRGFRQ

[8] = tested on: Mus musculus; test: Hypnotic activity in ip dosed C57BL/6 mouse assessed as increase in immobility time; type: functional, organism-based
[9] = Metabolic stability in mouse liver microsomes assessed as elimination half life; type: ADME, Microsome
[10] = Selectivity index, ratio of EC50 for alpha2A-adrenoceptor (unknown origin) to EC50 for alpha2C-adrenoceptor (unknown origin)
[11] = tested on: HEK293T; test: Agonist activity at alpha2A-adrenoceptor D128A mutant (unknown origin) expressed in HEK293T cells co-expressing pGloSensor-22F cAMP plasmid assessed as at 0.000001 to 100 uM measured after 10 mins incubation by multiplate reader; type: cell-based; details: Homo sapiens, dose lower 1e-06 µM, dose upper 100.0 µM
[12] = biological target: T4, Alpha-2B adrenergic receptor (Homo sapiens, UniProt P18089); test: Agonist activity at alpha2B-adrenoceptor (unknown origin) expressed in U2OS-EGFP-NFAT2-alpha2B-AR cells assessed as increase in intracellular calcium level measured after 15 mins incubation by Micro automated microscopy; type: functional, cell-based
T4 sequence (P18089 whole entry): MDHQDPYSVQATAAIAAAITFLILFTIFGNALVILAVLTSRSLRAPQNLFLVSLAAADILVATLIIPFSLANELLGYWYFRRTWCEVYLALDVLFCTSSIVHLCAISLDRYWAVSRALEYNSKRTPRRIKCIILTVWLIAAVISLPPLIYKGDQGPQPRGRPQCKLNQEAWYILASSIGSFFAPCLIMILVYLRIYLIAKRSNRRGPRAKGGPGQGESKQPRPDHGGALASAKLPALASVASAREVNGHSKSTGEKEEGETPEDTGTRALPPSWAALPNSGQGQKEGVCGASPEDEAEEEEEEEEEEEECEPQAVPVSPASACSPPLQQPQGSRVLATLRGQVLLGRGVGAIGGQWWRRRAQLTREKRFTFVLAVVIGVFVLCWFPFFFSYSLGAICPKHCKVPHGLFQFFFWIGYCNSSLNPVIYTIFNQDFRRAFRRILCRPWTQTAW

[13] = Selectivity index, ratio of EC50 for alpha2A-adrenoceptor (unknown origin) to EC50 for alpha2B-adrenoceptor (unknown origin)
[14] = tested on: HEK293T; test: Agonist activity at alpha2A-adrenoceptor F427A mutant (unknown origin) expressed in HEK293T cells co-expressing pGloSensor-22F cAMP plasmid assessed as at 1 to 100 uM measured after 10 mins incubation by multiplate reader; type: cell-based; details: Homo sapiens, dose 1-100 µM
[15] = biological target: T3, Alpha-2C adrenergic receptor
Description: Binding affinity to human alpha2C-adrenoceptor

[16] = biological target: T4, Alpha-2B adrenergic receptor
Description: Binding affinity to human alpha2B-adrenoceptor

[17] = biological target: T1, Alpha-2A adrenergic receptor; remark: listed apart in the source
Description: Binding affinity to human alpha2A-adrenoceptor

[18] = biological target: T2, Alpha-1A adrenergic receptor
Description: Binding affinity to human alpha1A-adrenoceptor

[19] = biological target: T5, Alpha-1D adrenergic receptor (Homo sapiens, UniProt P25100); test: Binding affinity to human alpha1D-adrenoceptor
T5 sequence (P25100 whole entry): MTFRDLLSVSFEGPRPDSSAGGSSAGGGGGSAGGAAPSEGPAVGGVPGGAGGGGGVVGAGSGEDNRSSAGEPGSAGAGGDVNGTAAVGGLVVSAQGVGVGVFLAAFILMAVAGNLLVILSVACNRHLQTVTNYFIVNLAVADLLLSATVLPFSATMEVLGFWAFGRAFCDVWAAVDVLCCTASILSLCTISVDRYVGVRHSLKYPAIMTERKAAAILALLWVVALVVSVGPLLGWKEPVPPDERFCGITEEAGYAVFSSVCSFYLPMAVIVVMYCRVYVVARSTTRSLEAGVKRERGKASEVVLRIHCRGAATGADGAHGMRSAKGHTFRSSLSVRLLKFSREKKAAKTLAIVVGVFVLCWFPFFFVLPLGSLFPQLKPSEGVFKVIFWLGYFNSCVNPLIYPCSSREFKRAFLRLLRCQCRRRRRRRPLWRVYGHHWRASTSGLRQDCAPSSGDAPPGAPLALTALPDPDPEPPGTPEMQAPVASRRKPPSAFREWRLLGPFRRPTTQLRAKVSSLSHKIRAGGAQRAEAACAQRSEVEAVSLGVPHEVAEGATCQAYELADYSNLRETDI

[20] = biological target: T6, Alpha-1B adrenergic receptor (Homo sapiens, UniProt P35368); test: Binding affinity to human alpha1B-adrenoceptor
T6 sequence (P35368 whole entry): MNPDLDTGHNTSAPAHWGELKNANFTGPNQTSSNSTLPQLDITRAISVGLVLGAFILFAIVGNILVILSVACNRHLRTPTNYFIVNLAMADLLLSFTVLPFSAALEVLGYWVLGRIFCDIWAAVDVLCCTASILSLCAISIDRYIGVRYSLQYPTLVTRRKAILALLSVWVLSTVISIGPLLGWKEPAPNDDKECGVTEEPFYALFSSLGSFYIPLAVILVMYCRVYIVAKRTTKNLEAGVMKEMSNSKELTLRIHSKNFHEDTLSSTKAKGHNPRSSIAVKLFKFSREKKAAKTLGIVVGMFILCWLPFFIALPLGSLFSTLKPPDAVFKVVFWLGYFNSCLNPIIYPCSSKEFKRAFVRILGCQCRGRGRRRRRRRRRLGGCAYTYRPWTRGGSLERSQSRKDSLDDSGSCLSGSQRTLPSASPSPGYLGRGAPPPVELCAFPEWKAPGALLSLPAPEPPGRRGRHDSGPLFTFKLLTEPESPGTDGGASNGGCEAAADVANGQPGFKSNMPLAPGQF

## Brc1cccc2c1OCC=C2c1c[nH]cn1
[1]
  EC50: 0.78 nM
[2]
  Selectivity Index: 41
[3]
  ED50: 1.54 mg/kg
[4]
  Activity: inactive
[5]
  microsomal CLint: 249 µL/min/mg
[6]
  EC50: 32 nM
[7]
  EC50: 37.2 nM
[8]
  Activity: Dose-Dependent Effect
[9]
  half-life: 5.56 min
[10]
  Selectivity Index: 48
[11]
  Activity: inactive
[12]
  EC50: 186 nM
[13]
  Selectivity Index: 238
[14]
  Activity: inactive

## C[C@H](c1c[nH]cn1)c1cccc2ccccc12
[15]
  Ki: 17.8 nM
[16]
  Ki: 35.5 nM
[17]
  Ki: 15.5 nM
[18]
  Ki: 447 nM

## C1=C(c2ccc3c(c2)CC3)CNCC1
[16]
  Ki: 60.3 nM

## Cc1cccc([C@H](C)c2c[nH]cn2)c1C [DEXMEDETOMIDINE]
[3]
  ED50: 0.11 mg/kg
[8]
  Activity: Dose-Dependent Effect
[14]
  Activity: inactive

## Clc1cccc2c(Nc3ccncc3)cccc12
[17]
  Ki: 8.32 nM

## COc1cccc2c1CCOC2C1=NCCN1 (stereo not drawn) [TASIPIMIDINE]
[19]
  Ki: 3090 nM
[15]
  Ki: > 1000 nM
[20]
  Ki: 525 nM
[16]
  Ki: > 1000 nM
[17]
  Ki: 8.71 nM
[18]
  Ki: 3090 nM

## Cc1cccc2c1OCC=C2c1c[nH]cn1
[1]
  EC50: 2.11 nM
[2]
  Selectivity Index: 14
[5]
  microsomal CLint: 284 µL/min/mg
[6]
  EC50: 29.8 nM
[7]
  EC50: 49.6 nM
[9]
  half-life: 4.87 min
[10]
  Selectivity Index: 24
[12]
  EC50: 100 nM
[13]
  Selectivity Index: 47
